Reference: patent US20170065533A1 (YISSUM RESEARCH DEVELOPMENT COMPANY OF THE HEBREW …, priority 2011, published 2017)

Key:
[1] = Particle size, PDI and zeta potential of nanocarriers; assay type: physicochemical; settings: INPs conjugated to MAbs
Procedure: mean diameter and particle size distribution measurements were carried out utilizing an ALV Noninvasive Back Scattering High Performance Particle Sizer (ALV-NIBS HPPS, Langen, Germany) at 25° C. and using water as diluent.
the zeta potential of the NPs was measured using the Malvern zetasizer (Malvern, UK) diluted in HPLC grade water.
The size and zeta potential of the various NPs were measured in water using a DTS zetasizer (Malvern, UK).
The mean diameter and the zeta potential of NCs were characterized using Malvern's Zetasizer (Nano series, Nanos-ZS, UK) at 25° C. and using water as diluent.
Mean diameter and zeta potential of the NCs were characterized using Malvern's Zetasizer (Nano ZSP) at 25° C. For the sample preparation, 200 mg of the anhydrous semi-solid preparation were dissolved in 2 mL HPLC water. The sample was vortexed and further centrifuged (4000 rpm, 10 min). Then, 1.2 mL of the supernatant was collected and centrifuged again (14000 rpm, 10 min). Finally, 1 mL of the obtained supernatant was collected and evaluated.

[2] = Conjugation efficiency of MAbs to NPs (BCA assay); assay type: physicochemical; settings: INPs conjugated to MAbs
Procedure: The conjugation efficiency of the macromolecules such as MAbs was determined using the […] Bicinchoninic acid assay (BCA) for protein quantification (Pierce, Ill., USA).

[3] = cited from earlier work
[4] = cited from earlier work; remark: listed apart in the source
[5] = 50 mg/day over one year, cited from earlier work

Row | Compound | Size [1] [nm] | Conjugation [2] [%] | expression of procollagen alpha1 (I) mRNA and protein ([3]; DHEA (5%) in ethanol:olive oil (1:2), 12 times over 4 weeks, aged and young skin) | basal expression of MMP-1 mRNA and protein ([3]; DHEA (5%) topical, 12 times over 4 weeks) | expression of TIMP-1 protein ([3]; DHEA (5%) topical, aged skin) | maximum solubility in mid chain triglycerides [4] [%] | skin status (hydration, epidermal thickness, sebum production, pigmentation) ([5]; aged 60 years and over) | harmful consequences [5]
1 | rituximab immunonanoparticles: thiolated PEG-PLGA50,000/PLGA48,000 nanoparticles surface-conjugated to rituximab MAb | 73.75 | 86.7 | – | – | – | – | – | –
2 | C[C@]12CC[C@H](O)CC1=CC[C@@H]1[C@@H]2CC[C@]2(C)C(=O)CC[C@@H]12 [DHEA, dehydroepiandrosterone] | – | – | significantly increase | significantly decreased | increased | 1.77 | improvement of the skin status | no harmful consequences
